The values that follow are results of earlier work, collected in patent US7671089B2 (XenoPort, Inc., priority 2004, dated 2010).

The conditions of series [1]: following oral administration.
For series [2] the following is noted: rats.

Molecules are shown by their SMILES.

`CC(C)(C)C(=O)Oc1ccc(C[C@H](N)C(=O)O)cc1O` [NB-355]: in series [1], the duration time result is listed as “prolonged” and the levels of levodopa result is reported as “low”.
For the compound `C[C@@](Cc1ccc(O)c(O)c1)(NN)C(=O)O` [carbidopa], the “absorption following rectal administration” value in series [2] is on record as “poor”.
